Source: patent US20090170923A1, “HCV INHIBITORS” (priority 2004, published 2009)
Where a name gives a salt, the structure may show the parent alone.

System: HCV genotype 1b strain Con1 replicon (ET replicon line, Huh7 cells)
Experiment: HCV ET replicon luciferase assay
Format: cell-based
Details: Hepatitis C virus, Huh-7; Huh7 cells stably transfected with HCV genotype 1b Con1 replicon; firefly luciferase readout; 72 hours incubation
Method: Compounds of the current invention are believed useful in the treatment and/or prophylaxis of conditions and diseases associated with HcV infection. Activity mediated through HCV was determined using an ET replicon line.
The Materials used include a Medium comprised of DMEM (IX liquid, high glucose); Invitrogen cat #11965-092; 100× Penicillin/Streptomycin solution (10,000 Units/mL); Invitrogen cat #15140-122; 100× Non-essential amino acid solution (10 mM); Invitrogen cat #11140-050; Fetal bovine serum; JRH Biosciences cat #12107-500M; Geneticin (50 mg/mL); Invitrogen cat #10131-035
The Luciferase assay reagents include Steady-Glo Luciferase assay system, cat # E2550 (Promega)
The ET replicon line (see Lohmann et al. (1999), Replication of subgenomic hepatitis C virus RNAs in a hepatoma cell line. Science 285: 110-113; Krieger et al. (2001), Enhancement of hepatitis C virus RNA replication by cell culture-adaptive mutations. J. Virol. 75: 4614-4624; and Vrolijk et al. (2003), A replicon-based bioassay for the measurement of interferons in patients with chronic hepatitis C. J. Virol. Meth. 110: 201-209, each herein incorporated by reference with regard to the ET replicon line), includes Huh7 cells stably transfected with HCV genotype 1b strain Con1 replicon. This replicon expresses the firefly luciferase, has the coding region for ubiquitin inserted upstream of the neomycin gene, and carries three cell culture-adaptive mutations that enhance RNA replication cooperatively (E1202G, T1280I, and S2197P). The ET cell line was obtained under licence from: ReBLikon GmbH, Nach dem alten Schloss 22, 55239 Gau-Odernheim, Germany. […]
Cells are grown to approximately 80% confluency and trypsinised as described above. Cells are counted in a Levy Hemocytometer and diluted to 20,000 cells/ml in DMEM containing 10% FBS, 1× penicillin/streptomycin, 1×NEAAs. […]
245 μL cell suspension is added to the first 11 columns of the daughter plates prepared as above using a Multidrop dispenser (Titertek). […] The twelfth column of each plate is used to generate background readings for the assay. […]

| Structure (SMILES) | IC50 [nM] |
| --- | --- |
| Brc1ccc2[nH]c3c(c2c1)CCC[C@H]3NC1Cc2ccccc2C1 [Example 27, (1R)-6-Bromo-N-(2,3-dihydro-1H-inden-2-yl)-2,3,4,9-tetrahydro-1H-carbazol-1-amine hydrochloride salt] | 54 |
| C[C@H](N[C@@H]1CCCc2c1[nH]c1ccc(Br)cc21)c1ccccc1 [Example 36, (1R)-6-Bromo-N-[(1S)-1-phenylethyl]-2,3,4,9-tetrahydro-1H-carbazol-1-amine Hydrochloride Salt] | 8 |
| C[C@@H](N[C@@H]1CCCc2c1[nH]c1ccc(Br)cc21)c1ccccc1 [Example 31, (1R)-6-bromo-N-[(1R)-1-phenylethyl]-2,3,4,9-tetrahydro-1H-carbazol-1-amine Hydrochloride Salt] | 13 |
